Assay results: patent publication US9814709B2, “Bruton's tyrosine kinase inhibitor” (HEFEI INSTITUTES OF PHYSICAL SCIENCE, CHINESE ACADEMY OF …, priority 2014, dated 2017)

Key:
BTK C481S protein = target: T1, BTK C481S protein (Homo sapiens, UniProt Q06187, C481S); test: Btk acellular kinase assay, BTK C481S mutant protein purified from transfected 293T cells; format: biochemical; details: 3-1000 nM, 100 μM ATP
T1 construct: made in house; host or cells: 293T cells
Experimental: The BTK wild-type plasmid and the BTK mutant plasmid (C481S) were respectively transfected into 293T cells (purchased from ATCC), and the resultant cells were marked as BTK WT 293T cells and BTK C481S 293T cells, respectively. After cell culture for 2 days, the cells were harvested and purified to give BTK WT and BTK C481S proteins. The compounds of formula (I) were added to the BTK WT and BTK C481S proteins at different concentrations of 3 nM, 10 nM, 30 nM, 100 nM, 300 nM and 1000 nM, respectively, and reacted at room temperature for 30 min, followed by the addition of 100 μM ATP at 37° C. and reacting for 20 min.

B-lymphoma cell Ramos = test: Cancer cell growth, Cell Titer-Glo; format: cell-based; details: Homo sapiens, 72 hrs, read-out: Half inhibitory concentration IC50
Text: (§1) We further assessed the selectivity of Compound 1 to inhibit the proliferation of cancer cells, by testing the effect of Btk inhibitor on the growth of cancer cells. In the example, we used B-lymphoma cell Ramos, cervical cancer cells HeLa, prostate cancer cells DU145, RV-1 and C4-2, colon cancer cells HCT116, blood cancer cells K562, B-cell lymphoma cells U2932, diffuse large B-cell lymphoma cells OCI-LY10, diffuse histiocytic lymphoma cells SU-DHL-2, diffuse large B-cell lymphoma cells TMD8, human non-small cell lung cancer cells H1975 (expressing EGFR L858R/T790M double mutant gene), human lung adenocarcinoma cells A549 (expressing wild-type EGFR gene), human non-small cell lung cancer cells H460 (expressing wild-type EGFR gene), mantel cell lymphoma (MCL) cells Z-138, EB virus infected human peripheral lymphocyte cells JVM-2, MCL cells REC-1, leukemia cells AML-3, acute promyelocytic leukemia cell line NB-4(Lu+), MDS-RAEB (myelodysplastic syndrome-excessive blasts) cell line SKM-1 human leukemia cell Nomo-1, human B-cell leukemia cell line NALM6, human leukocyte leukemia cells HEL, human T-cell lymphoma cells PF-382, acute myelocytic leukemia (AML) cell line MOLM14, AML cell line MOLM13, human Burkitt's lymphoma cells Namalwa, mouse pro-B cells BaF3, all of where were purchased from ATCC. Also used were mouse TEL-EGFR-BaF3 (stably expressing TEL-EGFR activated kinase), mouse TEL-EGFR/T790-BaF3 cells (stably expressing TEL-EGFR-T790M activated mutant kinase), mouse TEL-EGFR/L858R-BaF3 cells (stably expressing TEL-EGFR-L858R activated mutant kinase), mouse TEL-EGFR/T790/L858R-BaF3 (stably expressing TEL-EGFR-T790M/L858R activated mutant kinase), mouse TEL-BMX-BaF3 cells (stably expressing TEL-BMX activated kinase), mouse TEL-JAK1-BaF3 cells (stably expressing TEL-JAK1 activated kinase), mouse TEL-JAK2-BaF3 cells (stably expressing TEL-JAK2 activated kinase), mouse TEL-JAK3-BaF3 cells (stably expressing TEL-JAK3 activated kinase), where were all established by our laboratory via the following method: the kinase domain sequences of human EGFR, BMX, JAK1, JAK2, JAK3 were amplified respectively by PCR, and these kinase were inserted into the MSCV-Puro vectors with N-terminal TEL segment (Clontech); if there was a mutation, the mutation of the corresponding site was conducted by Site-Directed Mutagenesis kit (Stratagene); the resultants were stably transfected into mouse BaF3 cells by the means of retrovirus, and the IL-3 growth factors were removed, and eventually the EGFR, BMX, JAK1, JAK2, JAK3-transferred protein dependent cell lines were obtained.
(§2) In the example, different concentrations (0.000508 μM, 0.00152 μM, 0.00457 μM, 0.0137 μM, 0.0411 μM, 0.123 μM, 0.370 μM, 1.11 μM, 3.33 μM, 10 μM) of Compound 1 and Compound 19 were added into above cells, and were incubated for 72 hrs. The number of viable cells was determined by quantitating ATP in viable cells using Cell Titer-Glo® (Promega, U.S.) chemiluminescence cell viability assay kit.

MDS-RAEB cell line SKM-1 = test: Cancer cell growth, Cell Titer-Glo; format: cell-based; details: Homo sapiens; SKM-1, 72 hrs; read-out: Half inhibitory concentration IC50
Text: as §1, §2

[1] = tested on: acute myelocytic leukemia (AML) cell line MOLM14; test: Cancer cell growth, Cell Titer-Glo; format: cell-based; details: Homo sapiens, MOLM-14; MOLM14, 72 hrs; read-out: Half inhibitory concentration IC50
Text: as §1, §2

[2] = tested on: acute promyelocytic leukemia cell line NB-4(Lu+); test: Cancer cell growth, Cell Titer-Glo; format: cell-based; details: 72 hrs, read-out: Half inhibitory concentration IC50
Text: as §1, §2

[3] = tested on: cervical cancer cells HeLa; test: Cancer cell growth, Cell Titer-Glo; format: cell-based; details: Homo sapiens, 72 hrs, read-out: Half inhibitory concentration IC50
Text: as §1, §2

[4] = tested on: diffuse histiocytic lymphoma cells SU-DHL-2; test: Cancer cell growth, Cell Titer-Glo; format: cell-based; details: Homo sapiens; SU-DHL-2, 72 hrs; read-out: Half inhibitory concentration IC50
Text: as §1, §2

[5] = tested on: diffuse large B-cell lymphoma cells OCI-LY10; test: Cancer cell growth, Cell Titer-Glo; format: cell-based; details: Homo sapiens; OCI-LY10, 72 hrs; read-out: Half inhibitory concentration IC50
Text: as §1, §2

[6] = tested on: diffuse large B-cell lymphoma cells TMD8; test: Cancer cell growth, Cell Titer-Glo; format: cell-based; details: Homo sapiens; TMD8, 72 hrs; read-out: Half inhibitory concentration IC50
Text: as §1, §2

[7] = tested on: human B-cell leukemia cell line NALM6; test: Cancer cell growth, Cell Titer-Glo; format: cell-based; details: NALM-6, NALM6, 72 hrs, read-out: Half inhibitory concentration IC50
Text: as §1, §2

[8] = tested on: human Burkitt's lymphoma cells Namalwa; test: Cancer cell growth, Cell Titer-Glo; format: cell-based; details: Burkitts lymphoma cell, 72 hrs, read-out: Half inhibitory concentration IC50
Text: as §1, §2

[9] = tested on: human T-cell lymphoma cells PF-382; test: Cancer cell growth, Cell Titer-Glo; format: cell-based; details: PF-382, 72 hrs, read-out: Half inhibitory concentration IC50
Text: as §1, §2

[10] = tested on: human non-small cell lung cancer cells H1975 (expressing EGFR L858R/T790M double mutant gene); test: Cancer cell growth, Cell Titer-Glo; format: cell-based; details: NCI-H1975, H1975, 72 hrs, read-out: Half inhibitory concentration IC50
Text: as §1, §2

[11] = tested on: human non-small cell lung cancer cells H460 (expressing wild-type EGFR gene); test: Cancer cell growth, Cell Titer-Glo; format: cell-based; details: NCI-H460, H460, 72 hrs, read-out: Half inhibitory concentration IC50
Text: as §1, §2

[12] = tested on: prostate cancer cells C4-2; test: Cancer cell growth, Cell Titer-Glo; format: cell-based; details: C4-2, 72 hrs; read-out: Half inhibitory concentration IC50
Text: as §1, §2

[13] = tested on: prostate cancer cells DU145; test: Cancer cell growth, Cell Titer-Glo; format: cell-based; details: Homo sapiens, DU-145; DU145, 72 hrs; read-out: Half inhibitory concentration IC50
Text: as §1, §2

T1 sequence (Q06187 whole entry C481S): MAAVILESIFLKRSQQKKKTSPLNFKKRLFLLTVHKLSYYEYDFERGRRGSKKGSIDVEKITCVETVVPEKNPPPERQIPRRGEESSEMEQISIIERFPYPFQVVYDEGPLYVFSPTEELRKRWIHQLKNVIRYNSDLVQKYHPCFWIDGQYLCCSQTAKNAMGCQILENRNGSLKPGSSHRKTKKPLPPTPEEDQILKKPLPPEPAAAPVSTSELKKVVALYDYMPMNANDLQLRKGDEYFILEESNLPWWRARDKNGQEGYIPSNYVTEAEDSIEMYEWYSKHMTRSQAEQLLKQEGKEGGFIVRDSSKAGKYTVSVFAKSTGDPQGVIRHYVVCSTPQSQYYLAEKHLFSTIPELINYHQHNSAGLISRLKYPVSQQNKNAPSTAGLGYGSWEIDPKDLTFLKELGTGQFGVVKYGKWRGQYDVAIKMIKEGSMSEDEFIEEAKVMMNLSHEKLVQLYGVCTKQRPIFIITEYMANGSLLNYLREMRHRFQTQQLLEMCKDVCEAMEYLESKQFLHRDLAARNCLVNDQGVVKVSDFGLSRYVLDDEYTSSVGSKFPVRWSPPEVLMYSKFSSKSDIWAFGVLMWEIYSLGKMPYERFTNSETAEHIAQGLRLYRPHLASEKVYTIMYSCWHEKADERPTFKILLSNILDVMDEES

| Compound | inhibitory effect on BTK C481S (BTK C481S protein) | IC50 (B-lymphoma cell Ramos) | IC50 (MDS-RAEB cell line SKM-1) | IC50 [1] | IC50 [2] | IC50 [3] | IC50 [4] | IC50 [5] | IC50 [6] | IC50 [7] | IC50 [8] | IC50 [9] | IC50 [10] | IC50 [11] | IC50 [12] | IC50 [13] |
| --- | --- | --- | --- | --- | --- | --- | --- | --- | --- | --- | --- | --- | --- | --- | --- | --- |
| C=CC(=O)Nc1cc(-n2c(=O)ccc3cnc4ccc(-n5cccn5)cc4c32)ccc1C [Compound 1, N-(2-methyl-5-(2-oxo-9-(1H-pyrazol-1-yl)benzo[H][1,6]naphthyridin-1(2H)-yl)phenyl)acrylamide] | no inhibition | > 10 µM | 1.5 µM | 1.5 µM | 3.7 µM | > 10 µM | 5.02 µM | > 10 µM | 3.43 µM | 1.17 µM | 4.5 µM | 3.49 µM | 3.81 µM | > 10 µM | > 10 µM | > 10 µM |
| CCC(=O)Nc1cc(-n2c(=O)ccc3cnc4ccc(-n5cccn5)cc4c32)ccc1C [Compound 19, N-(2-methyl-5-(2-oxo-9-(1H-pyrazol-1-yl)benzo[H][1,6]naphthyridin-1(2H)-yl)phenyl) propionamide] | no inhibitory effect | > 10 µM | > 10 µM | > 10 µM | > 10 µM | > 10 µM | > 10 µM | > 10 µM | > 10 µM | > 10 µM | > 10 µM | > 10 µM | > 10 µM | > 10 µM | > 10 µM | > 10 µM |
